Active and inactive are the calls of the source. The rule behind the calls is not given here.
Test system: rodent lifetime carcinogenesis bioassay, tumor incidence TD50
Assay: chronic cancer bioassays in animals – CPDB, compiled studies (AID 1745844)

For `c1ccc2c(c1)[nH]c1ccccc12`, which TD50 (mouse, strain B6C3F1, females, in feed, site: forestomach, lesion: papilloma, dosed 96 weeks, study length 104 weeks) is on record?
Its TD50 is 1290 mg/kg/day.

What about the TD50 (mouse, strain B6C3F1, females, in feed, site: forestomach, lesion: several types, types named in the paper, dosed 96 weeks, study length 104 weeks) of the same molecule?
The TD50 was 1960 mg/kg/day.

What about the TD50 (mouse, strain B6C3F1, females, in feed, site: liver, lesion: hepatocellular carcinoma, dosed 96 weeks, study length 104 weeks) of the same molecule?
The TD50 was 102 mg/kg/day.

What about the TD50 (mouse, strain B6C3F1, males, in feed, site: forestomach, lesion: papilloma, dosed 96 weeks, study length 104 weeks) of the same molecule?
The TD50 was 7030 mg/kg/day.

What about the TD50 (mouse, strain B6C3F1, males, in feed, site: forestomach, lesion: several types, types named in the paper, dosed 96 weeks, study length 104 weeks) of the same molecule?
Its TD50 is 2790 mg/kg/day.

And the TD50 (mouse, strain B6C3F1, males, in feed, site: forestomach, lesion: squamous-cell carcinoma, dosed 96 weeks, study length 104 weeks)?
The TD50 was 4940 mg/kg/day.

And the TD50 (mouse, strain B6C3F1, males, in feed, site: liver, lesion: hepatocellular carcinoma, dosed 96 weeks, study length 104 weeks)?
The TD50 was 424 mg/kg/day.

How did the carcinogen call (mouse, strain B6C3F1, females, in feed, site: any site (literature study), lesion: several types, types named in the paper, dosed 104 weeks, study length 105 weeks) turn out when `Cc1ccc(OP(=O)(Oc2ccc(C)cc2)Oc2ccc(C)cc2)cc1` was run?
Its carcinogen call is “negative (inactive)”.

And the TD50 (mouse, strain B6C3F1, females, in feed, site: lung, lesion: alveolar/bronchiolar adenoma + alveolar/bronchiolar carcinoma, dosed 104 weeks, study length 105 weeks)?
The TD50 was 2310 mg/kg/day.

And the TD50 (mouse, strain B6C3F1, males, in feed, site: Harderian gland, lesion: adenoma, dosed 104 weeks, study length 105 weeks)?
The TD50 was 184 mg/kg/day (inactive).

What about the TD50 (mouse, strain B6C3F1, males, in feed, site: any site (literature study), lesion: several types, types named in the paper, dosed 104 weeks, study length 105 weeks) of the same molecule?
The TD50 was 159 mg/kg/day.

What about the TD50 (mouse, strain B6C3F1, males, in feed, site: liver, lesion: hepatocellular adenoma + hepatoblastoma + hepatocellular carcinoma, dosed 104 weeks, study length 105 weeks) of the same molecule?
The TD50 was 968 mg/kg/day.

And the TD50 (mouse, strain B6C3F1, males, in feed, site: lung, lesion: alveolar/bronchiolar adenoma + alveolar/bronchiolar carcinoma, dosed 104 weeks, study length 105 weeks)?
The TD50 was 187 mg/kg/day.

What about the TD50 (rat, strain Fischer 344, females, in feed, site: all sites, lesion: mononuclear-cell leukemia, dosed 104 weeks, study length 104 weeks) of the same molecule?
The TD50 was 35 mg/kg/day (inactive).

And the TD50 (rat, strain Fischer 344, females, in feed, site: any site (literature study), lesion: several types, types named in the paper, dosed 104 weeks, study length 104 weeks)?
The TD50 was 21.6 mg/kg/day.

And the carcinogen call (rat, strain Fischer 344, males, in feed, site: any site (literature study), lesion: several types, types named in the paper, dosed 104 weeks, study length 104 weeks)?
The carcinogen call was “negative (inactive)”.

And the TD50 (rat, strain Fischer 344, males, in feed, site: liver, lesion: hepatocellular adenoma + hepatoblastoma + hepatocellular carcinoma, dosed 104 weeks, study length 104 weeks)?
Its TD50 is 143 mg/kg/day.

`O=NN1CCC(O)C1` (stereo unspecified) was tested. Which TD50 (rat, strain Sprague-Dawley, both sexes, in drinking water, site: any site (literature study), lesion: malignant tumor, dosed 112 weeks, study length 112 weeks) did it give?
Its TD50 is 7.65 mg/kg/day.

And the TD50 (rat, strain Sprague-Dawley, both sexes, in drinking water, site: liver, lesion: hepatocellular carcinoma, dosed 112 weeks, study length 112 weeks)?
The TD50 was 8.11 mg/kg/day.

What does the source list for `CC1(C)[C@H](C(=O)O[C@H](C#N)c2cccc(Oc3ccccc3)c2)[C@@H]1C=C(Br)Br`?
carcinogen call (mouse, strain C57BL/6, females, by gavage, site: all sites, lesion: lymphoma, dosed 104 weeks, study length 114 weeks): negative (inactive); carcinogen call (mouse, strain C57BL/6, females, by gavage, site: any site (literature study), lesion: one or several types, types not named, dosed 104 weeks, study length 114 weeks): negative (inactive); carcinogen call (mouse, strain C57BL/6, females, by gavage, site: liver, lesion: hepatoma, dosed 104 weeks, study length 114 weeks): negative (inactive); carcinogen call (mouse, strain C57BL/6, females, by gavage, site: lung, lesion: adenoma, dosed 104 weeks, study length 114 weeks): negative (inactive); carcinogen call (mouse, strain C57BL/6, males, by gavage, site: any site (literature study), lesion: one or several types, types not named, dosed 104 weeks, study length 114 weeks): negative (inactive); carcinogen call (mouse, strain C57BL/6, males, by gavage, site: liver, lesion: hepatoma, dosed 104 weeks, study length 114 weeks): negative (inactive); carcinogen call (mouse, strain C57BL/6, males, by gavage, site: lung, lesion: adenoma, dosed 104 weeks, study length 114 weeks): negative (inactive); TD50 (rat, strain BD VI, females, by gavage, site: any site (literature study), lesion: one or several types, types not named, dosed 104 weeks, study length 114 weeks): 36.1 mg/kg/day (inactive); carcinogen call (rat, strain BD VI, females, by gavage, site: liver, lesion: hepatoma, dosed 104 weeks, study length 114 weeks): negative (inactive); TD50 (rat, strain BD VI, females, by gavage, site: thyroid gland, lesion: adenoma, dosed 104 weeks, study length 114 weeks): 16.9 mg/kg/day (inactive); carcinogen call (rat, strain BD VI, males, by gavage, site: any site (literature study), lesion: one or several types, types not named, dosed 104 weeks, study length 114 weeks): negative (inactive); carcinogen call (rat, strain BD VI, males, by gavage, site: liver, lesion: hepatoma, dosed 104 weeks, study length 114 weeks): negative (inactive); TD50 (rat, strain BD VI, males, by gavage, site: thyroid gland, lesion: adenoma, dosed 104 weeks, study length 114 weeks): 4.6 mg/kg/day (inactive)

With `COC(=O)C1=C(C)NC(C)=C(C(=O)OCC(C)(C)CN(C)Cc2ccccc2)C1c1cc([N+](=O)[O-])ccc1F` (stereo unspecified) as the molecule, how does the carcinogen call (rat, strain Fischer 344, females, in feed, site: liver, lesion: one or several types, types not named, dosed 104 weeks, study length 104 weeks) read?
The carcinogen call was “negative (inactive)”.

What about the carcinogen call (rat, strain Fischer 344, males, in feed, site: all sites, lesion: mononuclear-cell leukemia, dosed 104 weeks, study length 104 weeks) of the same molecule?
The carcinogen call was “negative (inactive)”.

And the carcinogen call (rat, strain Fischer 344, males, in feed, site: liver, lesion: hepatocellular adenoma, dosed 104 weeks, study length 104 weeks)?
The carcinogen call was “negative (inactive)”.

For `COC(=O)NN`, which carcinogen call (rat, strain Wistar, females, in feed, site: any site (literature study), lesion: one or several types, types not named, dosed 104 weeks, study length 104 weeks) is on record?
The carcinogen call was “negative (inactive)”.

What about the carcinogen call (rat, strain Wistar, males, in feed, site: any site (literature study), lesion: one or several types, types not named, dosed 104 weeks, study length 104 weeks) of the same molecule?
Its carcinogen call is “negative (inactive)”.

What does the source list for `CCCC1O[C@@H]2C[C@H]3[C@@H]4CCC5=CC(=O)C=C[C@]5(C)[C@H]4[C@@H](O)C[C@]3(C)[C@]2(C(=O)CO)O1` (stereo partly specified)?
TD50 (rat, strain Charles River CD (Sprague-Dawley), males, in drinking water, site: liver, lesion: hepatocellular adenoma, dosed 104 weeks, study length 104 weeks): 0.491 mg/kg/day; TD50 (rat, strain Charles River CD (Sprague-Dawley), males, in drinking water, site: liver, lesion: hepatocellular carcinoma, dosed 104 weeks, study length 104 weeks): 0.822 mg/kg/day; TD50 (rat, strain Charles River CD (Sprague-Dawley), males, in drinking water, site: liver, lesion: several types, types named in the paper, dosed 104 weeks, study length 104 weeks): 0.291 mg/kg/day

Which results are given for `OO`?
TD50 (mouse, strain C57BL/6J, females, in drinking water, site: duodenum, lesion: adenoma, dosed 100 weeks, study length 100 weeks): 2010 mg/kg/day; TD50 (mouse, strain C57BL/6J, females, in drinking water, site: duodenum, lesion: carcinoma, dosed 100 weeks, study length 100 weeks): 7540 mg/kg/day; TD50 (mouse, strain C57BL/6J, females, in drinking water, site: duodenum, lesion: several types, types named in the paper, dosed 100 weeks, study length 100 weeks): 7830 mg/kg/day; TD50 (mouse, strain C57BL/6J, males, in drinking water, site: duodenum, lesion: adenoma, dosed 100 weeks, study length 100 weeks): 7350 mg/kg/day; TD50 (mouse, strain C57BL/6J, males, in drinking water, site: duodenum, lesion: carcinoma, dosed 100 weeks, study length 100 weeks): 15000 mg/kg/day; TD50 (mouse, strain C57BL/6J, males, in drinking water, site: duodenum, lesion: several types, types named in the paper, dosed 100 weeks, study length 100 weeks): 4800 mg/kg/day

— PubChem BioAssay AID1745844 (Carcinogenic Potency Database (CPDB), 2022)
